Experimental data as given in ChEMBL document CHEMBL1671734, “An ertapenem-resistant extended-spectrum-beta-lactamase-producing Klebsiella pneumoniae clone carries a novel OmpK36 porin variant” (2010).
In brackets after ≈: the same amount, converted by molar mass.

Columns and labels:
Assay type in all cases: functional
[1] = test system: Klebsiella pneumoniae; assay: Antimicrobial activity against ESBL-positive Klebsiella pneumoniae 71697 harboring porin OmpK36V mutant gene by microdilution method
[2] = test system: Klebsiella pneumoniae; assay: Antimicrobial activity against ESBL-positive Klebsiella pneumoniae 69928 harboring porin OmpK36V mutant gene by microdilution method
[3] = test system: Klebsiella pneumoniae; assay: Antimicrobial activity against ESBL-positive Klebsiella pneumoniae 69036 harboring porin OmpK36V mutant gene by microdilution method
[4] = test system: Klebsiella pneumoniae; assay: Antimicrobial activity against ESBL-positive Klebsiella pneumoniae 50748 harboring porin OmpK36 gene by microdilution method
[5] = test system: Klebsiella pneumoniae; assay: Antimicrobial activity against ESBL-positive Klebsiella pneumoniae 18260 harboring pSHA2-encoded porin OmpK36 gene by microdilution method
[6] = test system: Klebsiella pneumoniae; assay: Antimicrobial activity against ESBL-positive Klebsiella pneumoniae 17829 harboring pSHA2-encoded porin OmpK36 gene by microdilution method
[7] = test system: Klebsiella pneumoniae; assay: Antimicrobial activity against ESBL-positive Klebsiella pneumoniae 19039 harboring porin OmpK36V mutant gene by microdilution method
[8] = test system: Klebsiella pneumoniae; assay: Antimicrobial activity against ESBL-positive Klebsiella pneumoniae 18918 harboring porin OmpK36V mutant gene by microdilution method
[9] = test system: Klebsiella pneumoniae; assay: Antimicrobial activity against ESBL-positive Klebsiella pneumoniae 18567 harboring porin OmpK36V mutant gene by microdilution method
[10] = test system: Klebsiella pneumoniae; assay: Antimicrobial activity against ESBL-positive Klebsiella pneumoniae 18260 by microdilution method
[11] = test system: Klebsiella pneumoniae; assay: Antimicrobial activity against ESBL-positive Klebsiella pneumoniae 17834 harboring porin OmpK36V mutant gene by microdilution method
[12] = test system: Klebsiella pneumoniae; assay: Antimicrobial activity against ESBL-positive Klebsiella pneumoniae 17830 harboring porin OmpK36V mutant gene by microdilution method
[13] = test system: Klebsiella pneumoniae; assay: Antimicrobial activity against ESBL-positive Klebsiella pneumoniae 17829 by microdilution method
[14] = test system: Klebsiella pneumoniae; assay: Antimicrobial activity against ESBL-positive Klebsiella pneumoniae 17049 harboring porin OmpK36V mutant gene by microdilution method
[15] = test system: Klebsiella pneumoniae; assay: Antimicrobial activity against ESBL-positive Klebsiella pneumoniae 16855 harboring porin OmpK36 and OmpK35 genes by Etest by microdilution method
[16] = test system: Klebsiella pneumoniae; assay: Antimicrobial activity against ESBL-positive Klebsiella pneumoniae 6267 harboring porin OmpK36V mutant gene by microdilution method
[17] = test system: Klebsiella pneumoniae; assay: Antimicrobial activity against ESBL-positive Klebsiella pneumoniae 11932 harboring porin OmpK36 gene by microdilution method
[18] = test system: Klebsiella pneumoniae; assay: Antimicrobial activity against ESBL-positive Klebsiella pneumoniae 16830 harboring porin OmpK36 gene by microdilution method
[19] = test system: Klebsiella pneumoniae; assay: Antimicrobial activity against ESBL-positive Klebsiella pneumoniae 25008 by microdilution method
[20] = test system: Klebsiella pneumoniae; assay: Antimicrobial activity against ESBL-positive Klebsiella pneumoniae 26077 harboring porin OmpK36V mutant gene by microdilution method
[21] = test system: Klebsiella pneumoniae; assay: Antimicrobial activity against ESBL-positive Klebsiella pneumoniae 287942 harboring porin OmpK36 gene by microdilution method
[22] = test system: Klebsiella pneumoniae; assay: Antimicrobial activity against ESBL-positive Klebsiella pneumoniae 29459 harboring porin OmpK36 gene by microdilution method
[23] = test system: Klebsiella pneumoniae; assay: Antimicrobial activity against ESBL-positive Klebsiella pneumoniae 29830 harboring porin OmpK36V mutant gene by microdilution method
[24] = test system: Klebsiella pneumoniae; assay: Antimicrobial activity against ESBL-negative Klebsiella pneumoniae 299332 harboring porin OmpK36 gene by microdilution method
[25] = test system: Klebsiella pneumoniae; assay: Antimicrobial activity against ESBL-negative Klebsiella pneumoniae 30018 harboring porin OmpK35 gene by microdilution method
[26] = test system: Klebsiella pneumoniae; assay: Antimicrobial activity against ESBL-positive Klebsiella pneumoniae 31750 harboring porin OmpK36 gene by microdilution method
[27] = test system: Klebsiella pneumoniae; assay: Antimicrobial activity against ESBL-positive Klebsiella pneumoniae 71697 harboring porin OmpK36V mutant gene by Etest in presence of Tazobactam
[28] = test system: Klebsiella pneumoniae; assay: Antimicrobial activity against ESBL-positive Klebsiella pneumoniae 69928 harboring porin OmpK36V mutant gene by Etest in presence of Tazobactam
[29] = test system: Klebsiella pneumoniae; assay: Antimicrobial activity against ESBL-positive Klebsiella pneumoniae 69036 harboring porin OmpK36V mutant gene by Etest in presence of Tazobactam
[30] = test system: Klebsiella pneumoniae; assay: Antimicrobial activity against ESBL-positive Klebsiella pneumoniae 50748 harboring porin OmpK36 gene by Etest in presence of Tazobactam
[31] = test system: Klebsiella pneumoniae; assay: Antimicrobial activity against ESBL-positive Klebsiella pneumoniae 19039 harboring porin OmpK36V mutant gene by Etest in presence of Tazobactam
[32] = test system: Klebsiella pneumoniae; assay: Antimicrobial activity against ESBL-positive Klebsiella pneumoniae 18918 harboring porin OmpK36V mutant gene by Etest in presence of Tazobactam
[33] = test system: Klebsiella pneumoniae; assay: Antimicrobial activity against ESBL-positive Klebsiella pneumoniae 18567 harboring porin OmpK36V mutant gene by Etest in presence of Tazobactam
[34] = test system: Klebsiella pneumoniae; assay: Antimicrobial activity against ESBL-positive Klebsiella pneumoniae 18260 by Etest in presence of Tazobactam
[35] = test system: Klebsiella pneumoniae; assay: Antimicrobial activity against ESBL-positive Klebsiella pneumoniae 17834 harboring porin OmpK36V mutant gene by Etest in presence of Tazobactam
[36] = test system: Klebsiella pneumoniae; assay: Antimicrobial activity against ESBL-positive Klebsiella pneumoniae 17830 harboring porin OmpK36V mutant gene by Etest in presence of Tazobactam
[37] = test system: Klebsiella pneumoniae; assay: Antimicrobial activity against ESBL-positive Klebsiella pneumoniae 17829 by Etest in presence of Tazobactam
[38] = test system: Klebsiella pneumoniae; assay: Antimicrobial activity against ESBL-positive Klebsiella pneumoniae 17049 harboring porin OmpK36V mutant gene by Etest in presence of Tazobactam
[39] = test system: Klebsiella pneumoniae; assay: Antimicrobial activity against ESBL-positive Klebsiella pneumoniae 16855 harboring porin OmpK36 and OmpK35 genes by Etest in presence of Tazobactam
[40] = test system: Klebsiella pneumoniae; assay: Antimicrobial activity against ESBL-positive Klebsiella pneumoniae 6267 harboring porin OmpK36V mutant gene by Etest in presence of Tazobactam
[41] = test system: Klebsiella pneumoniae; assay: Antimicrobial activity against ESBL-positive Klebsiella pneumoniae 11932 harboring porin OmpK36 gene by Etest in presence of Tazobactam
[42] = test system: Klebsiella pneumoniae; assay: Antimicrobial activity against ESBL-positive Klebsiella pneumoniae 16830 harboring porin OmpK36 gene by Etest in presence of Tazobactam
[43] = test system: Klebsiella pneumoniae; assay: Antimicrobial activity against ESBL-positive Klebsiella pneumoniae 25008 by Etest in presence of Tazobactam
[44] = test system: Klebsiella pneumoniae; assay: Antimicrobial activity against ESBL-positive Klebsiella pneumoniae 26077 harboring porin OmpK36V mutant gene by Etest in presence of Tazobactam
[45] = test system: Klebsiella pneumoniae; assay: Antimicrobial activity against ESBL-positive Klebsiella pneumoniae 287942 harboring porin OmpK36 gene by Etest in presence of Tazobactam
[46] = test system: Klebsiella pneumoniae; assay: Antimicrobial activity against ESBL-positive Klebsiella pneumoniae 29459 harboring porin OmpK36 gene by Etest in presence of Tazobactam
[47] = test system: Klebsiella pneumoniae; assay: Antimicrobial activity against ESBL-positive Klebsiella pneumoniae 29830 harboring porin OmpK36V mutant gene by Etest in presence of Tazobactam
[48] = test system: Klebsiella pneumoniae; assay: Antimicrobial activity against ESBL-negative Klebsiella pneumoniae 299332 harboring porin OmpK36 gene by Etest in presence of Tazobactam
[49] = test system: Klebsiella pneumoniae; assay: Antimicrobial activity against ESBL-negative Klebsiella pneumoniae 30018 harboring porin OmpK35 gene by Etest in presence of Tazobactam
[50] = test system: Klebsiella pneumoniae; assay: Antimicrobial activity against ESBL-positive Klebsiella pneumoniae 31750 harboring porin OmpK36 gene by Etest in presence of Tazobactam

Q: `C[C@@H](O)[C@H]1C(=O)N2C(C(=O)O)=C(S[C@@H]3CN[C@H](C(=O)Nc4cccc(C(=O)O)c4)C3)[C@H](C)[C@H]12` [ERTAPENEM] was tested. Which MIC [1] did it give?
A: 8 µg/mL (≈ 16.8 µM)

Q: And the MIC [2]?
A: 6 µg/mL (≈ 12.6 µM)

Q: And the MIC [3]?
A: 6 µg/mL (≈ 12.6 µM)

Q: And the MIC [4]?
A: 0.25 µg/mL (≈ 0.526 µM)

Q: What about the MIC [5] of the same compound?
A: 16 µg/mL (≈ 33.6 µM)

Q: What about the MIC [6] of the same compound?
A: 16 µg/mL (≈ 33.6 µM)

Q: What about the MIC [7] of the same compound?
A: 8 µg/mL (≈ 16.8 µM)

Q: What about the MIC [8] of the same compound?
A: 8 µg/mL (≈ 16.8 µM)

Q: What about the MIC [9] of the same compound?
A: 6 µg/mL (≈ 12.6 µM)

Q: What about the MIC [10] of the same compound?
A: 128 µg/mL (≈ 269 µM)

Q: What about the MIC [11] of the same compound?
A: 6 µg/mL (≈ 12.6 µM)

Q: What about the MIC [12] of the same compound?
A: 8 µg/mL (≈ 16.8 µM)

Q: And the MIC [13]?
A: 128 µg/mL (≈ 269 µM)

Q: And the MIC [14]?
A: 8 µg/mL (≈ 16.8 µM)

Q: What about the MIC [15] of the same compound?
A: 0.094 µg/mL (≈ 0.198 µM)

Q: And the MIC [16]?
A: 4 µg/mL (≈ 8.41 µM)

Q: What about the MIC [17] of the same compound?
A: 0.19 µg/mL (≈ 0.4 µM)

Q: What about the MIC [18] of the same compound?
A: 0.125 µg/mL (≈ 0.263 µM)

Q: And the MIC [19]?
A: 16 µg/mL (≈ 33.6 µM)

Q: And the MIC [20]?
A: 6 µg/mL (≈ 12.6 µM)

Q: What about the MIC [21] of the same compound?
A: 0.19 µg/mL (≈ 0.4 µM)

Q: What about the MIC [22] of the same compound?
A: 0.25 µg/mL (≈ 0.526 µM)

Q: What about the MIC [23] of the same compound?
A: 6 µg/mL (≈ 12.6 µM)

Q: And the MIC [24]?
A: 0.016 µg/mL (≈ 0.0336 µM)

Q: And the MIC [25]?
A: 0.023 µg/mL (≈ 0.0484 µM)

Q: What about the MIC [26] of the same compound?
A: 0.125 µg/mL (≈ 0.263 µM)

Q: With `CCN1CCN(C(=O)N[C@@H](C(=O)N[C@@H]2C(=O)N3[C@@H]2SC(C)(C)[C@@H]3C(=O)O)c2ccccc2)C(=O)C1=O` [PIPERACILLIN] as the compound, how does the MIC [27] read?
A: > 256 µg/mL

Q: What about the MIC [28] of the same compound?
A: > 256 µg/mL

Q: And the MIC [29]?
A: > 256 µg/mL

Q: And the MIC [30]?
A: 12 µg/mL

Q: And the MIC [31]?
A: > 256 µg/mL

Q: And the MIC [32]?
A: > 256 µg/mL

Q: And the MIC [33]?
A: > 256 µg/mL

Q: And the MIC [34]?
A: > 256 µg/mL

Q: What about the MIC [35] of the same compound?
A: > 256 µg/mL

Q: What about the MIC [36] of the same compound?
A: > 256 µg/mL

Q: And the MIC [37]?
A: > 256 µg/mL

Q: And the MIC [38]?
A: > 256 µg/mL

Q: And the MIC [39]?
A: 32 µg/mL

Q: What about the MIC [40] of the same compound?
A: 12 µg/mL

Q: What about the MIC [41] of the same compound?
A: > 256 µg/mL

Q: What about the MIC [42] of the same compound?
A: 16 µg/mL

Q: And the MIC [43]?
A: > 256 µg/mL

Q: What about the MIC [44] of the same compound?
A: > 256 µg/mL

Q: What about the MIC [45] of the same compound?
A: > 256 µg/mL

Q: What about the MIC [46] of the same compound?
A: > 256 µg/mL

Q: And the MIC [47]?
A: > 256 µg/mL

Q: What about the MIC [48] of the same compound?
A: 6 µg/mL

Q: What about the MIC [49] of the same compound?
A: 3 µg/mL

Q: What about the MIC [50] of the same compound?
A: 8 µg/mL
